The experiment relates to Human prostate cancer cell lines (PC-3 cells). In words: Measurement of cell death-inducing activity (Test Example 1). The experiment is classed as cell-based. The conditions noted are these: PC-3, 48 h, 48 hours after addition, tested at 10, 1, 0.1, 0.025 and 0.00625 μmol/L, qualitative evaluation of 10 fields, read-out: Concentration showing the cell death-inducing activity (cell death-inducing rate not less than 40%). How it is done:
The cell death-inducing activity of the compound represented by the formula (1) or the salt thereof was measured as follows.
Human prostate cancer cell lines (PC-3 cells) were seeded to 6-well plates at 1×10^5 cells/2 mL/well, and cultured in the presence of 5% CO2 at 37° C. for 48 hours. Thereafter, each compound was added thereto so as to provide 10, 1, 0.1, 0.025 and 0.00625 μmol/L. As a control, DMSO was added. After the addition, the cells were continuously cultured for 48 hours. […] When the cell death-inducing rate was not less than 40%, the compound was judged to have the cell death-inducing activity.
For the compound `COc1ccc(CN(C)NC(=O)c2sc(-c3ccc(Cl)cc3OC)nc2C)cc1C` [Example 16-23], the minimal effective concentration came to 1 µM.

As to `COc1cc(Cl)ccc1-c1cc(NC(=O)OCc2ccc3cn(C)nc3c2)n(C)n1` [Example 9-300], the minimal effective concentration is 0.00625 µM.

Take `COc1cc(Cl)ccc1-c1cc(NC(=O)OCc2ccc3c(c2)ncn3C)n(C)n1` [Example 9-221]: the minimal effective concentration stood at 0.00625 µM.

For the compound `CCn1cnc2cc(COC(=O)Nc3sc(-c4ncccc4C)nc3C)ccc21` [Example 9-196], the minimal effective concentration was determined as 10 µM.

For the compound `COc1cc(Cl)ccc1-c1nc(C)c(COC(=O)Nc2ccc3c(c2)nc2n3CCOC2)s1` [Example 13-23], the minimal effective concentration was found to be 1 µM.

In the case of `Cc1nc(-c2ccc(Cl)s2)sc1NC(=O)OCc1ccc2c(c1)ncn2C` [Example 9-193], the minimal effective concentration turned out to be 1 µM.

For the compound `CCn1cc2cc(NC(=O)OCc3sc(-c4ccc(F)cc4C)nc3C)ccc2n1` [Example 13-54], the minimal effective concentration turned out to be 0.1 µM.

For the compound `COc1ccc(/C=N/NC(=O)c2sc(-c3ccncc3)nc2C)cc1O` [Example 23-40], the minimal effective concentration was found to be 10 µM.

As for `CCn1cnc2cc(NC(=O)OCc3cc(-c4ccccc4OC)ns3)ccc21` [Example 47-10], the minimal effective concentration came to 10 µM.

With `COc1cc(Cl)ccc1-c1nc(C)c(C(=O)N/N=C/c2cccc3c2ccn3C)s1` [Example 23-95], the minimal effective concentration turned out to be 0.1 µM.

On to `CCc1nc(-c2ccc(C)cc2OC)sc1NC(=O)OCc1ccc2nn(CC)cc2c1` [Example 9-368], for which the minimal effective concentration is 0.1 µM.

In the case of `Cc1cc(Cl)ccc1-c1nc(C)c(COC(=O)Nc2ccc3c(c2)nnn3C)s1` [Example 13-3], the minimal effective concentration stood at 0.1 µM.

Regarding `COc1ccc(NC(=O)OCc2cc(-c3ccc(C)cc3OC)nn2C)cc1F` [Example 13-72], the minimal effective concentration is 1 µM.

As for `COc1cc(C)ccc1-c1nc(C)c(NC(=O)OCc2ccc3c(c2)nnn3C)s1` [Example 9-16], the minimal effective concentration turned out to be 0.00625 µM.

Turning to `COc1ccc(CN(C)NC(=O)c2sc(-c3ccc(F)cc3F)nc2C)cc1` [Example 16-7], the minimal effective concentration came out at 1 µM.

In the case of `Cc1cc(Cl)ccc1-c1nc(C)c(NC(=O)OCc2ccc3c(c2)nc2n3CCCC2)s1` [Example 9-115], the minimal effective concentration turned out to be 0.1 µM.

As to `COc1cc(Cl)ccc1-c1nc(C)c(NC(=O)OCc2ccc3c(c2)nc(C)n3C)s1` [Example 9-76], the minimal effective concentration was 0.025 µM.

Regarding `CCn1cnc2cc(COC(=O)Nc3sc(-c4cccc(C)c4)nc3C)ccc21` [Example 9-54], the minimal effective concentration turned out to be 1 µM.

Consider `CCN(Cc1ccc(OC)cc1)NC(=O)c1sc(-c2ccccc2OC)nc1C` [Example 16-12], for which the minimal effective concentration stood at 1 µM.

Take `Cn1nc(-c2ccccc2C(F)(F)F)cc1NC(=O)OCc1ccc2c(cnn2C)c1` [Example 9-278]: the minimal effective concentration was determined as 10 µM.

Regarding `Cc1ccc(-c2nc(C)c(NC(=O)OCc3ccc4c(c3)nc3n4CCOC3)s2)c(C)c1` [Example 9-96], the minimal effective concentration was 0.00625 µM.

For the compound `COc1ccccc1-c1nc(C)c(C(=O)N/N=C/c2ccc3cc[nH]c3c2)s1` [Example 23-91], the minimal effective concentration came out at 0.1 µM.

With `CCn1nc(-c2ccc(C)cc2C)cc1NC(=O)OCc1ccc2c(c1)ncn2CC` [Example 9-236], the minimal effective concentration was determined as 0.1 µM.

Regarding `CCn1nc(-c2ccc(Cl)cc2OC)cc1NC(=O)OCc1ccc2c(c1)nc1n2CCCC1` [Example 9-268], the minimal effective concentration came out at 0.1 µM.

Consider `Cc1ccc(-c2nc(C)c(COC(=O)Nc3ccc4sc(C)nc4c3)s2)c(C)c1` [Example 42-1, (2-Methylbenzothiazol-5-yl)carbamic acid 2-(2,4-dimethylphenyl)-4-methylthiazol-5-ylmethyl ester], for which the minimal effective concentration was 1 µM.

Consider `COc1cc(Cl)ccc1-c1nscc1NC(=O)OCc1ccc2c(c1)ncn2C` [Example 45-5], for which the minimal effective concentration came to 0.1 µM.

Turning to `CCc1nc(-c2ccc(F)cc2OC)sc1NC(=O)OCc1ccc2c(c1)ncn2CC` [Example 9-346], the minimal effective concentration turned out to be 0.025 µM.

As to `Cc1cc(/C=N/NC(=O)c2sc(-c3ccc(Cl)cc3)nc2C)cc(C)c1O` [Example 23-8], the minimal effective concentration amounted to 1 µM.

On to `Cn1nc(-c2ccc(Cl)cc2Cl)cc1NC(=O)OCc1ccc2c(c1)ncn2C` [Example 9-207], for which the minimal effective concentration came to 0.025 µM.

In the case of `COc1ccc(CN(C)NC(=O)c2sc(-c3ccc(Cl)cc3Cl)nc2C)cc1` [Example 16-10], the minimal effective concentration worked out at 1 µM.

With `Cc1cc(F)ccc1-c1nc(C)c(NC(=O)OCc2ccc3nn(C)cc3c2)s1` [Example 9-149], the minimal effective concentration is 1 µM.

Turning to `COc1cc(F)ccc1-c1cc(COC(=O)Nc2ccc3c(c2)nc2n3CCCC2)n(C)n1` [Example 13-116], the minimal effective concentration amounted to 0.025 µM.

`CCc1nc(-c2ccc(F)cc2C)sc1NC(=O)OCc1ccc2c(cnn2CC)c1` [Example 9-361]: the minimal effective concentration is 0.1 µM.

Consider `COc1ccc(/C=N/NC(=O)c2sc(-c3sc(C)nc3C)nc2C)cc1O` [Example 23-134], for which the minimal effective concentration was found to be 1 µM.

For the compound `Cc1ccccc1-c1cc(C(=O)N/N=C/c2cc(C)c(O)c(C)c2)sn1` [Example 27-10], the minimal effective concentration was determined as 0.1 µM.

For `CCc1nc(-c2ccc(Cl)cc2OC)sc1NC(=O)OCc1ccc2c(cnn2CC)c1` [Example 9-173], the minimal effective concentration was 0.025 µM.

On to `COc1cc(F)ccc1-c1cc(COC(=O)Nc2ccc3c(c2)nc2n3CCOC2)n(C)n1` [Example 13-97], for which the minimal effective concentration was determined as 0.00625 µM.

In the case of `CCn1nc(-c2ccc(Cl)cc2OC)cc1NC(=O)OCc1ccc2c(c1)nc1n2CCC1` [Example 9-259], the minimal effective concentration is 0.025 µM.

Consider `CCCc1nc(-c2ccc(Cl)cc2)sc1C(=O)N/N=C/c1cc(C)c(O)c(C)c1` [Example 23-107], for which the minimal effective concentration amounted to 10 µM.

On to `COc1ccc(/C=N/NC(=O)c2sc(-c3cccc(OC)c3OC)nc2C)cc1O` [Example 23-24], for which the minimal effective concentration worked out at 10 µM.

Turning to `CCn1nc(-c2ccc(F)cc2OC)cc1COC(=O)Nc1ccc2c(c1)nc1n2CCCC1` [Example 13-117], the minimal effective concentration was 0.1 µM.

Turning to `COc1cc(Cl)ccc1-c1nc(C)c(NC(=O)OCc2cccc(N(C)C)c2)s1` [Example 9-11], the minimal effective concentration came to 10 µM.

As to `CCc1nc(-c2ccc(Cl)cc2)sc1C(=O)N/N=C/c1cc(C)c(O)c(C)c1` [Example 23-106], the minimal effective concentration is 1 µM.

Turning to `CCn1cc2cc(NC(=O)OCc3cc(-c4ccc(Cl)cc4OC)nn3C)ccc2n1` [Example 13-133], the minimal effective concentration came out at 0.00625 µM.

With `CCn1nc(-c2ccc(Cl)cc2OC)cc1NC(=O)OCc1ccc2nn(C)cc2c1` [Example 9-292], the minimal effective concentration came to 0.025 µM.

Take `CCn1cnc2cc(NC(=O)OCc3cc(-c4ccc(C)cc4C)nn3C)ccc21` [Example 13-92]: the minimal effective concentration was 0.00625 µM.

Consider `Cc1ccccc1-c1nc(C)c(NC(=O)OCc2ccc3c(c2)ncn3C)s1` [Example 9-33], for which the minimal effective concentration worked out at 0.025 µM.

On to `COc1cc(Cl)ccc1-c1cc(NC(=O)OCc2ccc3c(c2)nc2n3CCCC2)n(C)n1` [Example 9-267], for which the minimal effective concentration turned out to be 0.025 µM.

Turning to `COc1cc(Cl)ccc1-c1nc(C)c(NC(=O)OCc2ccc3c(c2)nnn3C)s1` [Example 9-15], the minimal effective concentration turned out to be 0.00625 µM.

With `COc1ccccc1-c1nc(C)c(C(=O)N/N=C/c2ccc(N(C)C)cc2)s1` [Example 23-88], the minimal effective concentration came to 0.1 µM.

For `COc1ccccc1-c1nc(C)c(NC(=O)OCc2ccc3c(c2)nnn3C)s1` [Example 9-13], the minimal effective concentration stood at 0.025 µM.

Take `Cc1nc(-c2ccc(Cl)cc2)sc1C(=O)N/N=C/c1ccc(OC(F)F)c(O)c1` [Example 23-115]: the minimal effective concentration turned out to be 1 µM.

As for `Cc1nc(-c2cccc3c2OCC3)sc1NC(=O)OCc1ccc2c(c1)nnn2C` [Example 9-21], the minimal effective concentration was 10 µM.

Regarding `CCn1ncc2cc(COC(=O)Nc3sc(-c4ccc(Cl)cc4C)nc3C)ccc21` [Example 9-141], the minimal effective concentration is 0.025 µM.

Consider `CCc1nc(-c2ccccc2OC)sc1NC(=O)OCc1ccc2c(c1)nc1n2CCOC1` [Example 9-168], for which the minimal effective concentration was 0.1 µM.

As for `COc1ccc(CN(C)NC(=O)c2sc(-c3ccccc3OC)nc2C)cc1` [Example 16-4], the minimal effective concentration stood at 1 µM.

`CCn1ncc2cc(/C=N/NC(=O)c3cc(-c4ccc(Cl)cc4OC)ns3)ccc21` [Example 49-8]: the minimal effective concentration was found to be 1 µM.

As to `CCn1cc2ccc(COC(=O)Nc3cc(-c4ccc(C)cc4C)nn3C)cc2n1` [Example 9-304], the minimal effective concentration came to 1 µM.

As to `CCn1nc(-c2ccc(Cl)cc2OC)cc1COC(=O)Nc1ccc2c(c1)ncn2CC` [Example 13-87], the minimal effective concentration is 0.025 µM.

Regarding `COc1ccc(/C=N/NC(=O)c2sc(-c3cccc(F)c3)nc2C)cc1` [Example 23-66], the minimal effective concentration came out at 1 µM.

As to `COc1cc(C)ccc1-c1nc(C)c(NC(=O)OCc2ccc3c(c2)nc2n3CCC2)s1` [Example 9-104], the minimal effective concentration worked out at 0.1 µM.

For the compound `COc1ccc(/C=N/NC(=O)c2sc(-c3cnccc3C)nc2C)cc1O` [Example 23-135], the minimal effective concentration turned out to be 1 µM.

With `COc1ccccc1-c1cc(C(=O)N/N=C/c2ccc3c(c2)ncn3C)sn1` [Example 49-2, 3-(2-Methoxyphenyl)isothiazole-5-carboxylic acid[1-(1-methyl-1H-benzimidazol-5-yl)methylidene]hydrazide], the minimal effective concentration stood at 0.025 µM.

Regarding `Cn1nc2c(c1NC(=O)OCc1ccc3c(c1)ncn3C)COc1ccccc1-2` [Example 9-320], the minimal effective concentration came out at 10 µM.

The values are drawn from patent US9200008B2 (ASKA PHARMACEUTICAL CO., LTD., priority 2010, dated 2015).
